Source: patent publication US20260258035A1, “FIVE-MEMBERED AND SIX-MEMBERED NITROGEN-CONTAINING COMPOUND, AND INTERMEDIATE, PREPARATION METHOD AND USE THEREOF” (HANGZHOU SYNRX THERAPEUTICS BIOMEDICAL TECHNOLOGY CO., LTD., priority 2022, published 2026)

Biological target: PARG (Homo sapiens, UniProt Q86W56)
Experiment: Biochemical assay (PARG, TFMU-ADPr substrate)
[1] = 4 nM PARG, 66.2 uM TFMU-ADPr, 3 min at room temperature

PARG, sequence (Q86W56 whole entry): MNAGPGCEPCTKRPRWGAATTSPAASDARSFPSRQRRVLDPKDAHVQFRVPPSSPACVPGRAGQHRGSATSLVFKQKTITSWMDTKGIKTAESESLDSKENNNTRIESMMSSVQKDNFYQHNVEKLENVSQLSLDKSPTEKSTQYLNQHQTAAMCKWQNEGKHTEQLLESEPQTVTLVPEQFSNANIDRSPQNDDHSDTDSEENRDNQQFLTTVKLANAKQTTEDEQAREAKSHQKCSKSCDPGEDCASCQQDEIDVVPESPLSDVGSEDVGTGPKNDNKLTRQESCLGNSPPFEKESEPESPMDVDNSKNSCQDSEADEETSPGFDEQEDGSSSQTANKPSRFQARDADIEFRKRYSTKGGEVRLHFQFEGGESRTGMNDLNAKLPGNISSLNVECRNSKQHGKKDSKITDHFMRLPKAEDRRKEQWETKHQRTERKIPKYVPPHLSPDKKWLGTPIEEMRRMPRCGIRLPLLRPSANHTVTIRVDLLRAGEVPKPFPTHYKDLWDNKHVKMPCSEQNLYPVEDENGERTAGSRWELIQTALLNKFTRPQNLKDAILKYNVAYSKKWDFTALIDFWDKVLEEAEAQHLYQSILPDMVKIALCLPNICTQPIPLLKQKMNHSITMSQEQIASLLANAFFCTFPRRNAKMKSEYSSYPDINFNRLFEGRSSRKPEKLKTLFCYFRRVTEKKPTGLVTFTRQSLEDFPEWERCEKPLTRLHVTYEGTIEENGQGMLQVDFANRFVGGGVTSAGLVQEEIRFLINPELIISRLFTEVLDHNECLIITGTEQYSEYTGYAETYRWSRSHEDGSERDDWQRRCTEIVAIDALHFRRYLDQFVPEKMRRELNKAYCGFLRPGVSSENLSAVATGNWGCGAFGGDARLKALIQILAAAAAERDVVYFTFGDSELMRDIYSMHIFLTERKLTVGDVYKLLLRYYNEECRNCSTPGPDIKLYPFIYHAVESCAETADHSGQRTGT

Compound	IC50 (PARG, TFMU-ADPr substrate)	IC50 [1]
Cc1ncc(-c2cnc3c(N4CCN(C(=O)C(C)C)CC4)cc(S(=O)(=O)NC4(C#N)CC4)cn23)s1 [Example 1, N-(1-cyanocyclopropyl)-8-(4-isobutyrylpiperazin-1-yl)-3-(2-methylthiazol-5-yl)imidazo[1,2-a]pyridine-6-sulfonamide]	1540 nM	
Cc1nnc(-c2cnc3c(N4CCN(C(=O)C(C)C)CC4)cc(S(=O)(=O)NC4(C#N)CC4)cn23)s1 [Example 2, N-(1-cyanocyclopropyl)-8-(4-isobutyrylpiperazin-1-yl)-3-(5-methyl-1,3,4-thiadiazol-2-yl)imidazo[1,2-a]pyridine-6-sulfonamide]	2100 nM	
Cc1cnc(-c2cnc3c(N4CCN(C(=O)C(C)C)CC4)cc(S(=O)(=O)NC4(C#N)CC4)cn23)s1 [Example 3, N-(1-cyanocyclopropyl)-8-(4-isobutyrylpiperazin-1-yl)-3-(5-methylthiazol-2-yl)imidazo[1,2-a]pyridine-6-sulfonamide]	33.1 nM	
CC(C)C(=O)N1CCN(c2cc(S(=O)(=O)NC3(C#N)CC3)cn3c(-c4cc5n(n4)CCCC5F)cnc23)CC1 (stereo not drawn) [Example 8]	9690 nM	
CC(C)C(=O)N1CCN(c2cc(S(=O)(=O)NC3(C#N)CC3)cn3c(-c4cc5n(n4)CC(F)C5)cnc23)CC1 (stereo not drawn) [Example 10, N-(1-cyanocyclopropyl)-3-(5-fluoro-5,6-dihydro-4H-pyrrolo[1,2-b]pyrazol-2-yl)-8-(4-isobutyrylpiperazin-1-yl)imidazo[1,2-a]pyridine-6-sulfonamide]		500 to 1000 nM
CC(=O)N1CC2(CC=C(c3cc(S(=O)(=O)NC4(C#N)CC4)cn4c(-c5nnc(C(F)F)s5)cnc34)C2)C1 [Example 13, 8-(2-acetyl-2-azaspiro[3.4]oct-6-en-6-yl)-N-(1-cyanocyclopropyl)-3-(5-(difluoromethyl)-1,3,4-thiadiazol-2-yl)imidazo[1,2-a]pyridine-6-sulfonamide]	10.9 nM	< 100 nM
CC(C)C(=O)N1CCN(c2cc(S(=O)(=O)NC3COC3)cn3c(-c4nnc(C(F)F)s4)cnc23)CC1 [Example 16, 3-(5-(difluoromethyl)-1,3,4-thiadiazol-2-yl)-8-(4-isobutyrylpiperazin-1-yl)-N-(oxetan-3-yl)imidazo[1,2-a]pyridine-6-sulfonamide]	29.7 nM	< 100 nM
C=CC(=O)N1CC=C(c2cnc3c(N4CCN(C(=O)C(C)C)CC4)cc(S(=O)(=O)NC4(C#N)CC4)cn23)C1 [Example 18, 3-(1-acryloyl-2,5-dihydro-1H-pyrrol-3-yl)-N-(1-cyanocyclopropyl)-8-(4-isobutyrylpiperazin-1-yl)imidazo[1,2-a]pyridine-6-sulfonamide]	40 nM	< 100 nM
C=CC(=O)N1CCC(c2cnc3c(N4CCN(C(=O)C(C)C)CC4)cc(S(=O)(=O)NC4(C#N)CC4)cn23)C1 (stereo not drawn) [Example 19, 3-(1-acryloylpyrrolidin-3-yl)-N-(1-cyanocyclopropyl)-8-(4-isobutyrylpiperazin-1-yl)imidazo[1,2-a]pyridine-6-sulfonamide]	7240 nM	
CCC(=O)N1CC=C(c2cnc3c(N4CCN(C(=O)C(C)C)CC4)cc(S(=O)(=O)NC4(C#N)CC4)cn23)C1 [Example 20, N-(1-cyanocyclopropyl)-8-(4-isobutyrylpiperazin-1-yl)-3-(1-propionyl-2,5-dihydro-1H-pyrrol-3-yl)imidazo[1,2-a]pyridine-6-sulfonamide]	178 nM	< 100 nM
C=CC(=O)N1CC=C(c2cnc3c(N4CCN(C(=O)C(C)C)CC4)cc(S(=O)(=O)NC4(C#N)CC4)cn23)CC1 [Example 21, 3-(1-acryloyl-1,2,3,6-tetrahydropyridin-4-yl)-N-(1-cyanocyclopropyl)-8-(4-isobutyrylpiperazin-1-yl)imidazo[1,2-a]pyridine-6-sulfonamide]	912 nM	
Cc1ncc(-c2cnn3c(N4CCN(C(=O)C(C)C)CC4)cc(S(=O)(=O)NC4(C#N)CC4)cc23)s1 [Example 28, N-(1-cyanocyclopropyl)-7-(4-isobutyrylpiperazin-1-yl)-3-(2-methylthiazol-5-yl)pyrazolo[1,5-a]pyridine-5-sulfonamide]	33 nM	< 100 nM
CC(C)C(=O)N1CCN(c2cc(S(=O)(=O)NC(C3CC3)C(F)(F)F)cn3c(-c4nnc(C(F)F)s4)ncc23)CC1 (stereo not drawn) [Example 36, N-(1-cyclopropyl-2,2,2-trifluoroethyl)-3-(5-(difluoromethyl)-1,3,4-thiadiazol-2-yl)-8-(4-isobutyrylpiperazin-1-yl)imidazo[1,5-a]pyridine-6-sulfonamide]	649 nM	500 to 1000 nM
CN1CCN(c2cc(S(=O)(=O)NC3(C#N)CC3)cn3c(-c4nnc(C(F)F)s4)ncc23)CC1 [Example 38, N-(1-cyanocyclopropyl)-3-(5-(difluoromethyl)-1,3,4-thiadiazol-2-yl)-8-(4-methylpiperazin-1-yl)imidazo[1,5-a]pyridine-6-sulfonamide]	16.4 nM	< 100 nM
CN1CCN(c2cc(S(=O)(=O)NC3(C#N)CC3)cn3c(-c4nnc(C(F)F)s4)ncc23)CC1=O [Example 41, N-(1-cyanocyclopropyl)-3-(5-(difluoromethyl)-1,3,4-thiadiazol-2-yl)-8-(4-methyl-3-oxopiperazin-1-yl)imidazo[1,5-a]pyridine-6-sulfonamide]	29.8 nM	< 100 nM
N#CC1(NS(=O)(=O)c2cc(N3CCC(O)C3)c3cnc(-c4nnc(C(F)F)s4)n3c2)CC1 (stereo not drawn) [Example 42, N-(1-cyanocyclopropyl)-3-(5-(difluoromethyl)-1,3,4-thiadiazol-2-yl)-8-(3-hydroxypyrrolidin-1-yl)imidazo[1,5-a]pyridine-6-sulfonamide]	18 nM	< 100 nM
Cc1ncc2n1CCN(c1cc(S(=O)(=O)NC3(C#N)CC3)cn3c(-c4nnc(C(F)F)s4)ncc13)C2 [Example 44, N-(1-cyanocyclopropyl)-3-(5-(difluoromethyl)-1,3,4-thiadiazol-2-yl)-8-(3-methyl-5,6-dihydroimidazo[1,5-a]pyrazin-7(8H)-yl)imidazo[1,5-a]pyridine-6-sulfonamide]	10.7 nM	< 100 nM
COc1ccc(N(C)c2cc(S(=O)(=O)NC3(C#N)CC3)cn3c(-c4nnc(C(F)F)s4)ncc23)cc1 [Example 45, N-(1-cyanocyclopropyl)-3-(5-(difluoromethyl)-1,3,4-thiadiazol-2-yl)-8-((4-methoxyphenyl)(methyl)amino)imidazo[1,5-a]pyridine-6-sulfonamide]	135 nM	100 to 500 nM
O=S(=O)(NC1(CF)CC1)c1cc(N2CCC(O)C2)c2cnc(-c3nnc(C(F)F)s3)n2c1 (stereo not drawn) [Example 46, 3-(5-(difluoromethyl)-1,3,4-thiadiazol-2-yl)-N-(1-(fluoromethyl)cyclopropyl)-8-(3-hydroxypyrrolidin-1-yl)imidazo[1,5-a]pyridine-6-sulfonamide]	6.31 nM	< 100 nM
N#CC1(NS(=O)(=O)c2cc(N3CCC(OCC(F)(F)F)CC3)c3cnc(-c4nnc(C(F)F)s4)n3c2)CC1 [Example 47, N-(1-cyanocyclopropyl)-3-(5-(difluoromethyl)-1,3,4-thiadiazol-2-yl)-8-(4-(2,2,2-trifluoroethoxy)piperidin-1-yl)imidazo[1,5-a]pyridine-6-sulfonamide]	5.91 nM	< 100 nM
